Test results reported in paper PMC12068666, “Synthesis of thiazole-integrated pyrrolotriazinones: evaluations of cytotoxicity and effects on PI3K levels in cancer cells” (Turkish Journal of Chemistry, 2025).
Entries after “also recorded” stand apart in the source; their conditions may differ.

How the values were obtained:
HepG2 cells = assay: MTT assay, antiproliferative activity, HepG2; type: cell-based, human; conditions: for IC50: Homo sapiens, HepG2, MTT, 24 h treatment, mean ± SD; for Selectivity Index (SI) HepG2: IC50 of healthy cells (NIH/3T3)/IC50 of cancer cells
Method: (§1) MCF-7 (human ER + breast cancer, HTB-22, USA), A549 (human nonsmall cell lung cancer, ATTC CRM-CCL-185, USA), HepG2 (human liver cancer, ATTC HB-8065, USA), and NIH/3T3 (mouse embryonic fibroblast, ATCC, CRL-1658, USA) cells were maintained in DMEM supplemented with 10% fetal bovine serum and 1% penicillin/streptomycin. The cells were maintained under appropriate conditions (37 °C, 5% CO2).
(§2) The antiproliferative activity of the newly synthesized compounds was measured using the MTT assay as described in a previous study. Briefly, cells were seeded at a density of 6 × 10^3 cells/well and incubated for 24 h in a 37 °C humidified incubator with 5% CO2. Afterwards, the cells were treated with increasing concentrations (1, 2.5, 5, 10, 25, 50, 75, and 100 μM) of compounds and incubated for another 24 h. Moreover, some cells were incubated with doxorubicin (1, 5, 10, 25, and 50 μM) for comparison, while other cells treated only with 1% DMSO was used as the solvent control. After incubation, 20 μL of MTT solution (5 mg/mL in PBS) was added to each well, and the plate was incubated for 4 h under the same conditions. Following this period, the medium was discarded and replaced with DMSO. The absorbance of dissolved formazan crystals was measured using a multiplate reader. The IC50 value and the selectivity index of each compound were calculated as previously described.
(§3) The antiproliferative effect of all newly synthesized thiazole-integrated pyrrolotriazinone derivatives were assessed against cancer cell lines (MCF-7, A549, and HepG2) as well as a healthy cell line (NIH/3T3) using the MTT assay. The IC50 values were determined through the nonlinear regression algorithm for log (inhibitor) versus normalized response-variable slope, as implemented in GraphPad [Y = 100/(1 + 10^X−LogIC50), where X represents the logarithm of the inhibitor concentration and Y denotes the response]. Additionally, Selectivity Indices (SI: IC50 of healthy cells/IC50 of cancer cells) were calculated.

PI3K [1] = assay: PI3K protein levels by ELISA in HepG2 cells; type: cell-based, human; conditions: IC50 concentration, 24 h, compared to 1% DMSO control
Method: (§4) The protein levels of PI3K in MCF-7 and HepG2 cells were assessed using enzyme-linked immunosorbent assay (ELISA) kits. […] After the incubation period, the medium was collected, and PI3K protein levels were measured using ELISA kits according to the manufacturer’s instructions (Cat no: ELK9879, ELK Biotechnology, Denver, USA).

MCF-7 cells = assay: MTT assay, antiproliferative activity, MCF-7; type: cell-based, human; conditions: for IC50: Homo sapiens, MCF7, MTT, 24 h treatment, mean ± SD; for Selectivity Index (SI) MCF-7: IC50 of healthy cells (NIH/3T3)/IC50 of cancer cells
Method: as §1, §2, §3

PI3K [2] = assay: PI3K protein levels by ELISA in MCF-7 cells; type: cell-based, human; conditions: IC50 concentration, 24 h, compared to 1% DMSO control
Method: as §4

NIH/3T3 cells = assay: MTT assay, healthy cell line NIH/3T3; type: cell-based; conditions: Mus musculus, NIH3T3, 24 h treatment, mean ± SD
Method: as §1, §2, §3

A549 cells = assay: MTT assay, antiproliferative activity, A549; type: cell-based, human; conditions: for IC50: Homo sapiens, A549, MTT, 24 h treatment, mean ± SD; for Selectivity Index (SI) A549: IC50 of healthy cells (NIH/3T3)/IC50 of cancer cells
Method: as §1, §2, §3

PI3K enzyme = conditions: cited from earlier work

Row | IC50 (HepG2 cells) [µM] | IC50 (MCF-7 cells) [µM] | IC50 (A549 cells) [µM] | SMILES | PI3K protein levels in HepG2 cells (PI3K [1]) | Selectivity Index (SI) MCF-7 (MCF-7 cells) | PI3K protein levels in MCF-7 cells (PI3K [2]) | IC50 (NIH/3T3 cells) [µM] | Selectivity Index (SI) A549 (A549 cells) | Selectivity Index (SI) HepG2 (HepG2 cells) | IC50 (PI3K enzyme) [µM]
1 | 6.18 ± 0.63 | 9.23 ± 1.09 | 37.2 ± 1.15 | O=c1n(-c2nc(-c3ccc(Cl)cc3Cl)cs2)ncc2cccn12 [Compound 27, 3-(4-(2,4-dichlorophenyl)thiazol-2-yl)pyrrolo[1,2-d][1,2,4]triazin-4(3H)-one] | markedly diminished; also recorded: reduced PI3K levels; also recorded: significant reduction in PI3K protein levels | 10.30 | significantly reduced; also recorded: reduced PI3K levels; also recorded: significant reduction in PI3K protein levels | > 100 | 2.83 | – | –
2 | 15.1 ± 0.61 | 14.2 ± 0.42 | 25.2 ± 0.39 | O=c1n(-c2nc(-c3ccc(F)c(Cl)c3)cs2)ncc2cccn12 [Compound 26, 3-(4-(3-chloro-4-fluorophenyl)thiazol-2-yl)pyrrolo[1,2-d][1,2,4]triazin-4(3H)-one] | – | – | significantly reduced | > 100 | 5.53 | 9.22 | –
3 | 7.21 | 8.1 ± 0.17 | 38.7 ± 0.4 | O=c1n(-c2nc(-c3ccc(Cl)c(Cl)c3)cs2)ncc2cccn12 [Compound 25, 3-(4-(3,4-dichlorophenyl)thiazol-2-yl)pyrrolo[1,2-d][1,2,4]triazin-4(3H)-one] | markedly diminished; also recorded: significant reduction in PI3K protein levels | 13.60 | significantly reduced; also recorded: significant reduction in PI3K protein levels | > 100 | 2.84 | 15.20 | –

Continued, compound first:

Row | SMILES | IC50 (HepG2 cells) [µM] | IC50 (MCF-7 cells) [µM] | IC50 (A549 cells) [µM] | PI3K protein levels in HepG2 cells (PI3K [1]) | Selectivity Index (SI) MCF-7 (MCF-7 cells) | PI3K protein levels in MCF-7 cells (PI3K [2]) | IC50 (NIH/3T3 cells) [µM] | Selectivity Index (SI) A549 (A549 cells) | Selectivity Index (SI) HepG2 (HepG2 cells) | IC50 (PI3K enzyme) [µM]
4 | O=c1n(-c2nc(-c3ccc(Cl)cc3)cs2)ncc2cccn12 [Compound 21, 3-(4-(4-chlorophenyl)thiazol-2-yl)pyrrolo[1,2-d][1,2,4]triazin-4(3H)-one] | 10.2 ± 0.95 | 11.2 ± 0.12 | 39.2 ± 1.41 | did not alter PI3K levels | 9.51 | significantly reduced; also recorded: did reduce PI3K levels | > 100 | 2.72 | 10.40 | –
5 | Cc1ccn2nc(C(C)n3cnc4c(N)ncnc43)n(-c3ccccc3)c(=O)c12 (stereo not drawn) [Compound 6] | – | – | – | – | – | – | – | – | – | 0.075
6 | Cc1ccccc1-n1c(Cn2cnc3c(N)ncnc32)nn2ccc(C)c2c1=O [Compound 5] | – | – | – | – | – | – | – | – | – | 0.11
7 | Cc1ccccc1-n1c(Cn2cnc3c(N)ncnc32)nc2cccc(C)c2c1=O [IC87114] | – | – | – | – | – | – | – | – | – | 0.13
